From US12528802B2, “Heterocyclic compound” (Takeda Pharmaceutical Company Limited, priority 2019, dated 2026)

molecular target: T1, glucosylceramide synthase (Homo sapiens, UniProt Q16739); assay: Glucosylceramide synthase (GCS) enzyme assay, microsome fraction, C8 glucosylceramide quantified by Rapidfire MS/MS; type: biochemical; conditions: test compound 10 μM; 1.7 μM UDP-glucose, 3 μM C8 ceramide; room temperature 60 min; read-out: GCS enzyme inhibitory rate at 10 μM (%) (% of control)
T1 construct: made in house; host or cells: Expi293F cells (transient expression, pcDNA3.3-TOPO vector); microsome fraction used as enzyme source
T1 sequence (Q16739 1-394): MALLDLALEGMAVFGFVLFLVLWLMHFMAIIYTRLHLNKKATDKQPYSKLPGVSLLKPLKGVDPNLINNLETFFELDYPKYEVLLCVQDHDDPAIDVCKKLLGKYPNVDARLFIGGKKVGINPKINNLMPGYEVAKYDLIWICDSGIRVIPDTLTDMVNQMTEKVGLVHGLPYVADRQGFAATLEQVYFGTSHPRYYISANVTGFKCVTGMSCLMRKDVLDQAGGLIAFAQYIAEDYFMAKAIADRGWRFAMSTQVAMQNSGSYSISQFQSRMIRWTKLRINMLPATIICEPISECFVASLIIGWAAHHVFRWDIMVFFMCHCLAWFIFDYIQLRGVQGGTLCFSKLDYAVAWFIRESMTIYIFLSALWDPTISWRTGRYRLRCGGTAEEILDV
Procedure, shortened: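 Test compound, 10 μM final, was run against human GCS from transfected Expi293F microsome fractions, using substrate solution of 6 μM C8 ceramide (in DOPC liposomes) plus 3.4 μM UDP-glucose, pH 7.5 Tris buffer, 60 min, room temperature. Product C8 glucosylceramide measured by Rapidfire MS/MS against an internal standard, % inhibition referenced to no-enzyme and DMSO wells.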

Compared with `CC(C)(CO)c1ccc(N2Cc3c(ccnc3-c3ccc(F)cc3OCC(F)(F)F)C2=O)cc1` [Example 253, 4-[4-fluoro-2-(2,2,2-trifluoroethoxy)phenyl]-2-[4-(1-hydroxy-2-methylpropan-2-yl)phenyl]-2,3-dihydro-1H-pyrrolo[3,4-c]pyridin-1-one], `CC(C)(C#N)c1ccc(N2Cc3c(ccnc3-c3ccc(F)cc3OCC(F)(F)F)C2=O)cc1` [Example 269, 2-(4-{4-[4-fluoro-2-(2,2,2-trifluoroethoxy)phenyl]-1-oxo-1,3-dihydro-2H-pyrrolo[3,4-c]pyridin-2-yl}phenyl)-2-methylpropanenitrile] is higher in inhibition at 10 µM: 98% for the first, 99% for the second.

Going from `CC(C)(O)COc1ccc(N2Cc3c(ccnc3-c3ccc(F)cc3OCC(F)(F)F)C2=O)cc1` [Example 254, 4-[4-fluoro-2-(2,2,2-trifluoroethoxy)phenyl]-2-[4-(2-hydroxy-2-methylpropoxy)phenyl]-2,3-dihydro-1H-pyrrolo[3,4-c]pyridin-1-one] to `CC(C)(O)COc1ccc(N2Cc3c(ccnc3-c3ccc(F)cc3OCC(F)(F)F)C2=O)nc1` [Example 255, 4-[4-fluoro-2-(2,2,2-trifluoroethoxy)phenyl]-2-[5-(2-hydroxy-2-methylpropoxy)pyridin-2-yl]-2,3-dihydro-1H-pyrrolo[3,4-c]pyridin-1-one], the inhibition at 10 µM rises from 99% to 100%.

First: O=C1c2ccnc(-c3ccc(F)cc3OCC(F)(F)F)c2CN1c1ccc(C2(O)CCOCC2)cn1 [Example 257, 4-[4-fluoro-2-(2,2,2-trifluoroethoxy)phenyl]-2-[5-(4-hydroxyoxan-4-yl)pyridin-2-yl]-2,3-dihydro-1H-pyrrolo[3,4-c]pyridin-1-one]
Second: O=C1c2ccnc(-c3ccccc3OCC(F)(F)F)c2CN1c1ccc(C2(O)CC2)cn1 [Example 265, 2-[5-(1-hydroxycyclopropyl)pyridin-2-yl]-4-[2-(2,2,2-trifluoroethoxy)phenyl]-2,3-dihydro-1H-pyrrolo[3,4-c]pyridin-1-one]
The inhibition at 10 µM of the first is lower: 99% for the first, 100% for the second.

Compared with `CC(=O)N1CC(O)(c2ccc(N3Cc4c(ccnc4-c4ccccc4OCC(F)(F)F)C3=O)cc2)C1` [Example 258, 2-[4-(1-acetyl-3-hydroxyazetidin-3-yl)phenyl]-4-[2-(2,2,2-trifluoroethoxy)phenyl]-2,3-dihydro-1H-pyrrolo[3,4-c]pyridin-1-one], `O=C(C1CC1)N1CC(O)(c2ccc(N3Cc4c(ccnc4-c4ccccc4OCC(F)(F)F)C3=O)cc2)C1` [Example 261, 2-{4-[1-(cyclopropanecarbonyl)-3-hydroxyazetidin-3-yl]phenyl}-4-[2-(2,2,2-trifluoroethoxy)phenyl]-2,3-dihydro-1H-pyrrolo[3,4-c]pyridin-1-one] is higher in inhibition at 10 µM: 70% for the first, 93% for the second.

Compared with `O=C1c2ccnc(-c3ccccc3OCC(F)(F)F)c2CN1c1ccc(C2(O)CNC2)cc1` [Example 259, 2-[4-(3-hydroxyazetidin-3-yl)phenyl]-4-[2-(2,2,2-trifluoroethoxy)phenyl]-2,3-dihydro-1H-pyrrolo[3,4-c]pyridin-1-one], `N#CC1(c2ccc(N3Cc4c(ccnc4-c4ccccc4OCC(F)(F)F)C3=O)cc2)CC1` [Example 271, 1-(4-{1-oxo-4-[2-(2,2,2-trifluoroethoxy)phenyl]-1,3-dihydro-2H-pyrrolo[3,4-c]pyridin-2-yl}phenyl)cyclopropane-1-carbonitrile] is higher in inhibition at 10 µM: 85% for the first, 100% for the second.

Going from `O=C1c2ccnc(-c3ccccc3OCC(F)(F)F)c2CN1c1ccc(C(O)(C(F)(F)F)C(F)(F)F)cc1` [Example 260, 2-[4-(1,1,1,3,3,3-hexafluoro-2-hydroxypropan-2-yl)phenyl]-4-[2-(2,2,2-trifluoroethoxy)phenyl]-2,3-dihydro-1H-pyrrolo[3,4-c]pyridin-1-one] to `O=C1c2ccnc(-c3ccc(F)cc3OCC(F)(F)F)c2CN1c1ccc(C(O)(C(F)(F)F)C(F)(F)F)cc1` [Example 270, 4-[4-fluoro-2-(2,2,2-trifluoroethoxy)phenyl]-2-[4-(1,1,1,3,3,3-hexafluoro-2-hydroxypropan-2-yl)phenyl]-2,3-dihydro-1H-pyrrolo[3,4-c]pyridin-1-one], the inhibition at 10 µM falls from 100% to 99%.

Compared with `CC(C)(O)c1ccc(N2Cc3c(ccnc3-c3ccccc3OCC(F)(F)F)C2=O)cc1F` [Example 262, 2-[3-fluoro-4-(2-hydroxypropan-2-yl)phenyl]-4-[2-(2,2,2-trifluoroethoxy)phenyl]-2,3-dihydro-1H-pyrrolo[3,4-c]pyridin-1-one], `CC(C)(O)c1ccc(N2Cc3c(ccnc3-c3ccncc3OCC(F)(F)F)C2=O)cc1F` [Example 272, 2-[3-fluoro-4-(2-hydroxypropan-2-yl)phenyl]-4-[3-(2,2,2-trifluoroethoxy)pyridin-4-yl]-2,3-dihydro-1H-pyrrolo[3,4-c]pyridin-1-one] is lower in inhibition at 10 µM: 100% for the first, 96% for the second.

Going from `CC(C)(C)[Si](C)(C)OC1(c2ccc(N3Cc4c(ccnc4-c4ccccc4OCC(F)(F)F)C3=O)nc2)CC1` [Example 266, 2-[5-(1-{[tert-butyl(dimethyl)silyl]oxy}cyclopropyl)pyridin-2-yl]-4-[2-(2,2,2-trifluoroethoxy)phenyl]-2,3-dihydro-1H-pyrrolo[3,4-c]pyridin-1-one] to `CC(C)(O)c1ccc(N2Cc3c(ccnc3-c3ccccc3OCC(F)(F)F)C2=O)nc1` [Example 273, 2-[5-(2-hydroxypropan-2-yl)pyridin-2-yl]-4-[2-(2,2,2-trifluoroethoxy)phenyl]-2,3-dihydro-1H-pyrrolo [3,4-c]pyridin-1-one], the inhibition at 10 µM rises from 99% to 100%.

First: O=C1c2ccnc(-c3ccc(F)cc3OCC(F)F)c2CN1c1ccc(C2(O)CCC2)cc1 [Example 267, 4-[2-(2,2-difluoroethoxy)-4-fluorophenyl]-2-[4-(1-hydroxycyclobutyl)phenyl]-2,3-dihydro-1H-pyrrolo[3,4-c]pyridin-1-one]
Second: O=C1c2ccnc(-c3ccccc3OCC(F)F)c2CN1c1ccc(C2(O)CCC2)cc1 [Example 290, 4-[2-(2,2-difluoroethoxy)phenyl]-2-[4-(1-hydroxycyclobutyl)phenyl]-2,3-dihydro-1H-pyrrolo[3,4-c] pyridin-1-one]
The inhibition at 10 µM of the first is lower: 99% for the first, 100% for the second.

Compared with `CS(=O)(=O)c1ccc(N2Cc3c(ccnc3-c3ccccc3OCC(F)(F)F)C2=O)nc1` [Example 268, 2-[5-(methanesulfonyl)pyridin-2-yl]-4-[2-(2,2,2-trifluoroethoxy)phenyl]-2,3-dihydro-1H-pyrrolo[3,4-c]pyridin-1-one], `CC(C)(O)c1ccc(N2Cc3c(ccnc3-c3ccncc3OCC(F)(F)F)C2=O)nc1` [Example 275, 2-[5-(2-hydroxypropan-2-yl)pyridin-2-yl]-4-[3-(2,2,2-trifluoroethoxy)pyridin-4-yl]-2,3-dihydro-1H-pyrrolo [3,4-c]pyridin-1-one] is higher in inhibition at 10 µM: 91% for the first, 94% for the second.

First: CC(C)(O)c1ccc(N2Cc3c(ccnc3-c3ccc(F)cc3OCC(F)F)C2=O)cc1F [Example 274, 4-[2-(2,2-difluoroethoxy)-4-fluorophenyl]-2-[3-fluoro-4-(2-hydroxypropan-2-yl)phenyl]-2,3-dihydro-1H-pyrrolo[3,4-c]pyridin-1-one]
Second: CC(C)(O)c1ccc(N2Cc3c(ccnc3-c3ccc(F)cc3OCC(F)F)C2=O)nc1 [Example 289, 4-[2-(2,2-difluoroethoxy)-4-fluorophenyl]-2-[5-(2-hydroxypropan-2-yl)pyridin-2-yl]-2,3-dihydro-1H-pyrrolo [3,4-c]pyridin-1-one]
The inhibition at 10 µM of the first is lower: 97% for the first, 98% for the second.

First: CC(C)(O)C(F)(F)c1ccc(N2Cc3c(ccnc3-c3ccncc3OCC(F)(F)F)C2=O)cc1 [Example 283, 2-[4-(1,1-difluoro-2-hydroxy-2-methylpropyl)phenyl]-4-[3-(2,2,2-trifluoroethoxy)pyridin-4-yl]-2,3-dihydro-1H-pyrrolo[3,4-c] pyridin-1-one]
Second: O=C1c2ccnc(-c3ccncc3OCC(F)(F)F)c2CN1c1ccc(C(O)(C(F)F)C(F)F)cc1 [Example 284, 2-[4-(1,1,3,3-tetrafluoro-2-hydroxypropan-2-yl)phenyl]-4-[3-(2,2,2-trifluoroethoxy)pyridin-4-yl]-2,3-dihydro-1H-pyrrolo[3,4-c] pyridin-1-one]
The inhibition at 10 µM of the first is lower: 94% for the first, 99% for the second.

Going from `O=C1c2ccnc(-c3ccncc3OCC(F)(F)F)c2CN1c1ccc(C2(O)CC(F)(F)C2)c(F)c1` [Example 287, 2-[4-(3,3-difluoro-1-hydroxycyclobutyl)-3-fluorophenyl]-4-[3-(2,2,2-trifluoroethoxy)pyridin-4-yl]-2,3-dihydro-1H-pyrrolo[3,4-c] pyridin-1-one] to `CC(C)(O)C(F)(F)c1ccc(N2Cc3c(ccnc3-c3ccc(F)cc3OCC(F)(F)F)C2=O)cn1` [Example 291, 2-[6-(1,1-difluoro-2-hydroxy-2-methylpropyl)pyridin-3-yl]-4-[4-fluoro-2-(2,2,2-trifluoroethoxy)phenyl]-2,3-dihydro-1H-pyrrolo[3,4-c]pyridin-1-one], the inhibition at 10 µM falls from 99% to 79%.

Compound `CC(C)(O)c1ccc(N2Cc3c(ccnc3-c3ccccc3OCC(F)F)C2=O)nc1` [Example 288, 4-[2-(2,2-difluoroethoxy)phenyl]-2-[5-(2-hydroxypropan-2-yl)pyridin-2-yl]-2,3-dihydro-1H-pyrrolo [3,4-c]pyridin-1-one] has an inhibition at 10 µM of 99%.
